Test results published in patent publication US20250099548A1, “PHARMACEUTICAL COMPOSITION FOR PREVENTING OR TREATING DEGENERATIVE BRAIN DISEASES, CONTAINING GLUCAGON-LIKE PEPTIDE-1 AND INTERLEUKIN-1 RECEPTOR ANTAGONIST” (GI INNOVATION, INC., priority 2022, published 2025).

Legend:
[1] = target: T1, IL-1Ra (interleukin-1 receptor alpha) (Homo sapiens, UniProt P14778); experiment: Binding ability of GI210B1 measured with Octet RED 384 (AR2G biosensor); settings: IL-1Ra 1 μg/ml coated on biosensor; GI210B1 15.6 nM to 1,000 nM
T1 construct: purchased R&D systems
T1 sequence (P14778 18-569): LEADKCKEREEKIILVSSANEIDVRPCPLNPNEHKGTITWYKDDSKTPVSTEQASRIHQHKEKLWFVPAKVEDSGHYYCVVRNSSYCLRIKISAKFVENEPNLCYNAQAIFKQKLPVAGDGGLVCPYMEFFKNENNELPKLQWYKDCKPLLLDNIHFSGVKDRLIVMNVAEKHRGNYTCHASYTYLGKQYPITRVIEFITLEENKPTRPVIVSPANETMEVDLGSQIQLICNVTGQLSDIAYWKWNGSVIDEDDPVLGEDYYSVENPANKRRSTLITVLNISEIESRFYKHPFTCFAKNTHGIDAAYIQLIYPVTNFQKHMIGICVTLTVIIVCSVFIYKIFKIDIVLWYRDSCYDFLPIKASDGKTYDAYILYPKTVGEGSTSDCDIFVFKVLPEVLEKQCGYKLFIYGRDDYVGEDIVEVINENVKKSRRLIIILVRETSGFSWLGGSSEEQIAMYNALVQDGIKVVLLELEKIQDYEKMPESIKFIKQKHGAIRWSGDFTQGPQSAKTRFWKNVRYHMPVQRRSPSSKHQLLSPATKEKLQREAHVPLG
Procedure: The binding ability of GI210B1, which was obtained through the method of Preparation Example 1 above, to IL-1Ra ([…]) was measured. At that time, the binding ability to IL-1Ra was confirmed using Octet RED 384 (ForteBio). The AR2G (amine reactive 2nd generation) biosensor was used by immersion in 1× kinetic buffer for 10 minutes. IL-1Ra (R&D systems) was prepared at a concentration of 1 μg/ml and coated on the biosensor, and the binding ability was confirmed at each concentration by serially diluting GI210B1 from 15.6 nM to 1,000 nM.

Tg-APP/PS1 mice [2] = experiment: Aβ plaque deposition in brain tissue, thioflavin S staining; assay type: in vivo, mouse; settings: 4 times for 2 weeks
Procedure: Accordingly, in order to confirm the effect of treating Alzheimer's disease by intraperitoneal administration of GI210B1, the Tg-APP/PS1 mice administered with GI210B1 (Tg+GI210B1) and the Tg-APP/PS1 mice (Tg+Veh), a control group, were sacrificed, and then the brain tissue was extracted, and Aβ plaques were stained using thioflavin S, and then the degree of Aβ plaque deposition in the parietal cortex, hippocampus, and piriform cortex regions was analyzed.
Specifically, for immunohistochemical analysis using thioflavin S staining, the brain was collected after perfusion for the mouse with 4% paraformaldehyde, and then the brain was further fixed with 4% paraformaldehyde overnight at 4° C. The brain tissue sections were prepared by cutting the fixed brain tissue to a thickness of […] using a vibratome. The prepared brain tissue sections were stained using thioflavin S by a known method. At that time, the stained image was analyzed using MetaMorph Microscopy Automation & Image Analysis software (Molecular device). The amount of plaque was quantified and expressed as the number of plaques per unit area and the sum of the plaque areas.
The Tg-APP/PS1 mice were prepared in the same manner as in Example 1.1 above. The test substance was prepared by diluting GI210B1, GI210B1C1, or GI210B1CN obtained in Preparation Example 1 to 3 in saline. Thereafter, the prepared test substances were each intraperitoneally administered to the 6.5-month-old Tg-APP/PS1 mice at a concentration of 1.2 mg/kg, 0.7778 mg/kg, and 1.1745 mg/kg a total of 4 times for 2 weeks (FIG. 23).
In the same manner as in Example 1.3 above, the mice were sacrificed, and then the brain tissue was extracted, and the degree of Aβ plaque deposition in the parietal cortex, hippocampus, and piriform cortex regions was analyzed using thioflavin S, which stains Aβ plaques.
The Tg-APP/PS1 mice were prepared in the same manner as in Example 1.1 above. The test substance was prepared by diluting GLP-1 (Peptron), GI210B1C1 obtained in Preparation Example 2 and GI212B2 obtained in Preparation Example 4, anakinra (Amgen, Kineret-inj), and the anti-IL-1 antibody (BioXcell, BE0246) in saline to concentrations of 0.0371 mg/kg, 1.1745 mg/kg, 1.8722 mg/kg, 0.2041 mg/kg, and 1.77 mg/kg, respectively. Thereafter, the prepared test substances were intraperitoneally administered to the 6.5-month-old Tg-APP/PS1 mice a total of 4 times for 2 weeks, as shown in Table 6 below (FIG. 30). […]
In the same manner as in Example 1.3 above, the mice from each group were sacrificed, and then the brain tissue was extracted, and the degree of Aβ plaque deposition in the parietal cortex, hippocampus, and piriform cortex regions was analyzed using thioflavin S, which stains Aβ plaques.

Tg-APP/PS1 mice [3] = experiment: Passive avoidance test; assay type: in vivo, mouse; settings: Example 1; 72 and 120 hours after the shock; 1.2 mg/kg intraperitoneal, 4 times for 2 weeks
Procedure: The test substance was prepared by diluting GI210B1 obtained in Preparation Example 1 in saline, and it was intraperitoneally administered to 6.5-month-old Tg-APP/PS1 mice at a concentration of 1.2 mg/kg a total of 4 times for 2 weeks (FIG. 10).
In the Tg-APP/PS1 mice intraperitoneally administered with GI210B1 at 6.5 months of age in Example 1.1 above, behavioral characteristics of cognitive function were evaluated at 7.5 to 8.0 months of age. In order to evaluate the behavioral characteristics of cognitive function, a novel object recognition test (NOR test), a passive avoidance test, and a water maze test were performed. At that time, the three experiments for behavioral evaluation were performed according to a method known in the art.
The passive avoidance test is a test to confirm fear/anxiety memory by associating spatial contextual cues and shock in mice for long periods of 24 hours, 72 hours, and 120 hours. The passive avoidance test is a cognitive behavior evaluation experiment conducted to confirm memories associated with spatial and contextual cues, specifically fear and anxiety. […]
Specifically, mice have a tendency to prefer a dark place. […] The mice prepared in Example 1.1 were learned in the same manner as above, and the time for each step was measured.

Substance: GI210B1: fusion protein dimer comprising GLP-1 (SEQ ID NO: 2), IgG4 Fc domain and IL-1Ra; SEQ ID NO: 10
- Ka(Association rate, 1/Ms) [1]: 22000 M⁻¹ s⁻¹
- Kd(dissociation rate, 1/s) [1]: 0.0093 s⁻¹
- amount of plaque deposited in the brain (number of plaques per unit area and sum of plaque areas) (Tg-APP/PS1 mice [2]; Example 1, parietal cortex, hippocampus, piriform cortex, GI210B1 1.2 mg/kg intraperitoneal): tended to be reduced compared to the control group
- amount of plaque deposited in the brain (number of plaques per unit area and sum of plaque areas) (Tg-APP/PS1 mice [2]; Example 2, GI210B1, GI210B1C1, GI210B1CN at 1.2, 0.7778, 1.1745 mg/kg intraperitoneal): statistically significantly reduced compared to the control group (Tg+Veh)
- amount of plaque deposited in the brain (number of plaques per unit area and sum of plaque areas) (Tg-APP/PS1 mice [2]; Example 2, GI210B1, GI210B1C1, GI210B1CN at 1.2, 0.7778, 1.1745 mg/kg intraperitoneal, listed as G2101B1): tended to be reduced
- moving to the dark chamber after foot shock (Tg-APP/PS1 mice [3]): had a tendency not to move to the dark chamber
